We go through 2 molecules from ChEMBL document CHEMBL5053549, “Discovery of Potent and Novel Dual PARP/BRD4 Inhibitors for Efficient Treatment of Pancreatic Cancer” (J Med Chem, 2021).

pIC50: −log10 of the molar value. Activity calls are given as the source filed them. The rule behind the calls is not given here.

Data set [1] concerns SW1990. Nature of the data set: Induction of autophagy in human SW1990 cells assessed as increase in LC3B expression at 4 uM incubated for 4 days by immunofluorescence assay. The format is functional, cell-based. As to conditions: time 4.0 day.
Data set [2] relates to SW1990. Description: Induction of autophagy in human SW1990 cells assessed as reduction in p62 expression at 4 uM incubated for 4 days by immunofluorescence assay. The format is functional, cell-based. As to conditions: time 4.0 day.
Data set [3] deals with Mus musculus. Nature of the data set: Toxicity in BALB/c mouse xenografted with human SW1990 cells assessed as spleen damage at 15 mg/kg, ip administered for 28 consecutive days by H and E staining based […] microscopic analysis. Type of data set: organism-based. As to conditions: in vivo, 672 h, time 28 day.
Data set [4] has as its system Mus musculus. Nature of the data set: Toxicity in BALB/c mouse xenografted with human SW1990 cells assessed as heart damage at 15 mg/kg, ip administered for 28 consecutive days by H and E staining based […] microscopic analysis. As to conditions: in vivo, 672 h, time 28 day. Type of data set: organism-based.
In data set [5] the test system is Mus musculus. Description: Toxicity in BALB/c mouse xenografted with human SW1990 cells assessed as kidney damage at 15 mg/kg, ip administered for 28 consecutive days in presence of 45 mg/kg Olaparib. As to conditions: in vivo, 672 h, time 28 day. Type of data set: organism-based.
Data set [6] relates to Mus musculus. Nature of the data set: Toxicity in BALB/c mouse xenografted with human SW1990 cells assessed as lung damage at 15 mg/kg, ip administered for 28 consecutive days in presence of 45 mg/kg Olaparib. The format is organism-based. As to conditions: in vivo, 672 h, time 28 day.
The test system of data set [7] is Mus musculus. Description: In vivo inhibition of PARP1 expression in human […] cells xenografted in BALB/c mouse assessed as reversal of Olaparib-induced PARP1 accumulation at 15 mg/kg, ip administered for 28 consecutive days in presence of 45 mg/kg Olaparib by Q-PCR analysis. As to conditions: time 28.0 day. The format is functional, organism-based. A general note: A xenograft is tissue or cells of one species grown in another, often human tumour cells in immunodeficient mice.

Data set [8] concerns SW1990. Nature of the data set: Inhibition of homologous recombinant repair in human SW1990 cells assessed as increase in […] expression at 4 uM after 4 days by Q-PCR analysis. Type of data set: functional, cell-based. As to conditions: time 4.0 day.
For data set [9], the system named is SW1990. Description: Inhibition of homologous recombinant repair in human SW1990 cells assessed as reduction in c-Myc expression at 4 uM after 4 days by Q-PCR analysis. The format is functional, cell-based. As to conditions: time 4.0 day.
Data set [10] addresses Poly [ADP-ribose] polymerase 2 (Homo sapiens, UniProt Q9UGN5). Nature of the data set: Inhibition of recombinant PARP2 (unknown origin) incubated for 45 mins in presence of biotinylated-NAD+ by ELISA. For orientation: In an ELISA, binding on a coated surface is turned into a signal by an enzyme label.
For data set [11], the target named is Bromodomain-containing protein 2 (Homo sapiens, UniProt P25440). Nature of the data set: Inhibition of recombinant BRD2 BD1 (unknown origin) incubated for 120 mins by TR-FRET assay. (In general: Time-resolved FRET reads energy transfer from a long-lived donor to a nearby acceptor.)
Chain of Bromodomain-containing protein 2 (P25440 whole entry): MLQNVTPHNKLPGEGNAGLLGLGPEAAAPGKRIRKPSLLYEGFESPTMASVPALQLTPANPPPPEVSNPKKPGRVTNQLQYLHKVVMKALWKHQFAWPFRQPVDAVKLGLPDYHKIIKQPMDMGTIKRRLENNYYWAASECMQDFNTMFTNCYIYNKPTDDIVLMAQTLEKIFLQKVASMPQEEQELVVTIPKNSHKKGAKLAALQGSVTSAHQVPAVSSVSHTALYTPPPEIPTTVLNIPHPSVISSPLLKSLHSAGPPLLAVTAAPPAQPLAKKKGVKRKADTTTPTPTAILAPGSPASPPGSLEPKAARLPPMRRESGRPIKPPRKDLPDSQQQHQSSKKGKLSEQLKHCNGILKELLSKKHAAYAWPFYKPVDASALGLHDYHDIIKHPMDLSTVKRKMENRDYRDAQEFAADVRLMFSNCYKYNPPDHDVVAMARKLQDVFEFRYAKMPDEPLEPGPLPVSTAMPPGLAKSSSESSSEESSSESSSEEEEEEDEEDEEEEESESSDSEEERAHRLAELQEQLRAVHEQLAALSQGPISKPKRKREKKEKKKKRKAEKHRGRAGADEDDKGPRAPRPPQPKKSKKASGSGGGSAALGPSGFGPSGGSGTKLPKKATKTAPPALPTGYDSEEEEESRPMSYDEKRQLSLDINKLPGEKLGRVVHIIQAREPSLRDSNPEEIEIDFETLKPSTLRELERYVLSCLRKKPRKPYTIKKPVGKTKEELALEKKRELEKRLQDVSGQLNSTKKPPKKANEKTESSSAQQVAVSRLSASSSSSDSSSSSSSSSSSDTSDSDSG
The test system of data set [12] is Mus musculus. Description: Inhibition of homologous recombinant repair in human SW1990 cells xenografted in BALB/c mouse assessed as reduction in olaparib-induced Rad51 expression at 15 mg/kg, ip after 4 days by immunohistochemical analysis. As to conditions: time 4.0 day. The format is functional, organism-based.
In data set [13] the target is T1, Bromodomain-containing protein 1 (Homo sapiens, UniProt O95696).
T1 sequence (O95696 whole entry): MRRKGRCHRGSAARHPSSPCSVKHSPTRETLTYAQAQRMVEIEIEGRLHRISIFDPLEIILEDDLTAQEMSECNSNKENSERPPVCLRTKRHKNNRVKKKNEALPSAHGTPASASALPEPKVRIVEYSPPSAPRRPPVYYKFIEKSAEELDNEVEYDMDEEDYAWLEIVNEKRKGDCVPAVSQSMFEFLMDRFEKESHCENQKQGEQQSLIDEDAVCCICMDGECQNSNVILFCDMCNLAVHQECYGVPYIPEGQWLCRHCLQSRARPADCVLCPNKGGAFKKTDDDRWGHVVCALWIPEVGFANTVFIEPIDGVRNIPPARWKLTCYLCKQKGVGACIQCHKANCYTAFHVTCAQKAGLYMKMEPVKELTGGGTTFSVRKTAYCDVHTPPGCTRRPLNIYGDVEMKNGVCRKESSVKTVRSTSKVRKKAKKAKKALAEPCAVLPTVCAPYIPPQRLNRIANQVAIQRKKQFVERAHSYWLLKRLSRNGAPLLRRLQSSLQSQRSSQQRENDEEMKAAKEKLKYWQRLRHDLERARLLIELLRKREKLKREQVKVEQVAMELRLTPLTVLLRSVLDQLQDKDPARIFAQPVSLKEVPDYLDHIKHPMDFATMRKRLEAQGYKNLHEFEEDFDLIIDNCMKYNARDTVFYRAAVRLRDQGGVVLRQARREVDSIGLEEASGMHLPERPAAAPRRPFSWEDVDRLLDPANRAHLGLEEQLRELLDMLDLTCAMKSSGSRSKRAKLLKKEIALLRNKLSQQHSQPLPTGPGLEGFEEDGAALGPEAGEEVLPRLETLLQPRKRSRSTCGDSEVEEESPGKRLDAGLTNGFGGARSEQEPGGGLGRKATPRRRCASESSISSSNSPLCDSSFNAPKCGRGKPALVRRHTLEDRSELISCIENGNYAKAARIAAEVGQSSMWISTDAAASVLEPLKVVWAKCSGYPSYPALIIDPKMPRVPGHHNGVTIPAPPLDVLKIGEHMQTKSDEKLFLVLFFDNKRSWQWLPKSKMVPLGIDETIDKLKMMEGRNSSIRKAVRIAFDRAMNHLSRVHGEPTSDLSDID
Nature of the data set: Inhibition of recombinant BRD1 (unknown origin) incubated for 120 mins by TR-FRET assay.

The target in data set [14] is Poly [ADP-ribose] polymerase 1 (Homo sapiens, UniProt P09874). Description: Inhibition of PARP1 expression in human SW1990 cells at 1 uM after 4 days by Q-PCR analysis. The format is cell-based. As to conditions: time 4.0 day.
Chain of Poly [ADP-ribose] polymerase 1 (P09874 whole entry): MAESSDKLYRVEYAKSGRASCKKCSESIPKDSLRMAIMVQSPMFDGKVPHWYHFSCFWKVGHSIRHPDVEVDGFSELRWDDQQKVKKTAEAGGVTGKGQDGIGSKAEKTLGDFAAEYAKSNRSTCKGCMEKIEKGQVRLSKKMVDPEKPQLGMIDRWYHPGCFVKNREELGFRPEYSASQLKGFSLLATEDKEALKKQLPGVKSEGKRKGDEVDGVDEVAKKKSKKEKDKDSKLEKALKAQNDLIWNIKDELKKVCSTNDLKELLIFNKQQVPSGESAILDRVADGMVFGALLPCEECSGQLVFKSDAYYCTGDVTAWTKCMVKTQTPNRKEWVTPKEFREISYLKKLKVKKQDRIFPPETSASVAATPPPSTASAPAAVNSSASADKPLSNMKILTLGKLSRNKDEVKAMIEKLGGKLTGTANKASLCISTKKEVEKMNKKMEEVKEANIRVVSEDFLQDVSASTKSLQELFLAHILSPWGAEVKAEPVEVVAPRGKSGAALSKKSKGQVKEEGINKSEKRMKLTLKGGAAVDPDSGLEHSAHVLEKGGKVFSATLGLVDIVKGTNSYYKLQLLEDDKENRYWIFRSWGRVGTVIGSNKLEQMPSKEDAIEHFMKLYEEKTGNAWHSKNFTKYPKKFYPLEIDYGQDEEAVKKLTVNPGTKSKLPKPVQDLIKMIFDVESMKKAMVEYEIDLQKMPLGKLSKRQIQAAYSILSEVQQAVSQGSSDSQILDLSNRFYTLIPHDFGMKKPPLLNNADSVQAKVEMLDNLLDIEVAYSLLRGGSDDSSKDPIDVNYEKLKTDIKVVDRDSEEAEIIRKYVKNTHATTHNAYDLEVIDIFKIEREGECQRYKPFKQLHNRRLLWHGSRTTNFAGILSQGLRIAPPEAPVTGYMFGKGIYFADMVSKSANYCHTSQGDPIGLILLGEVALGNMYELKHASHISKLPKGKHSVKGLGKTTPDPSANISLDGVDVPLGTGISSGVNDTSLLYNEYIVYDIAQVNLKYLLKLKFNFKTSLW
Data set [15] relates to SW1990. Description: Induction of apoptosis in human SW1990 cells assessed as early apoptotic cells at 2 uM after 4 days by Annexin V-FITC and propidium iodide staining based flow cytometry (reference value: […]%). Type of data set: functional. As to conditions: time 4 day.
Data set [16] has as its system SW1990. Nature of the data set: Induction of cell cycle arrest in human SW1990 cells assessed as accumulation of cells at G0/G1 phase at 2 uM incubated for 4 days by propidium iodide staining based flow cytometry (reference value: 64.79%). Type of data set: functional. As to conditions: time 4 day.
The subject of data set [17] is Mus musculus. Nature of the data set: Effect on cell cycle progression in human SW1990 cells xenografted in BALB/c mouse assessed as reduction in CCND1 expression at 45 mg/kg, ip after 4 days by Q-PCR analysis. As to conditions: time 4.0 day. The format is functional, organism-based.
The test system of data set [18] is SW1990. Nature of the data set: Effect on cell cycle progression in human SW1990 cells assessed as reduction in CDK6 expression at 1 to 2 uM after 4 days by Western blot analysis. The format is functional, cell-based. As to conditions: dose 1-2 µM, time 4.0 day.
In data set [19] the test system is Mus musculus. Description: Effect on cell cycle progression in human SW1990 cells xenografted in BALB/c mouse assessed as reduction in E2F2 expression at 45 mg/kg, ip after 4 days by Q-PCR analysis. Type of data set: functional, organism-based. As to conditions: time 4.0 day.
The subject of data set [20] is SW1990. Nature of the data set: Induction of DNA damage in human SW1990 cells assessed as increase in gammaH2AX at 1 to 2 uM incubated for 4 days by immunofluorescence assay. Type of data set: functional, cell-based. As to conditions: dose 1-2 µM, time 4.0 day.
For data set [21], the system named is SW1990. Nature of the data set: Inhibition of homologous recombinant repair in human SW1990 cells assessed as reduction in FOXM1 expression at 1 to 2 uM after 4 days by Q-PCR analysis. Type of data set: functional, cell-based. As to conditions: dose 1-2 µM, time 4.0 day.
The subject of data set [22] is SW1990. Description: Inhibition of homologous recombinant repair in human SW1990 cells assessed as reduction in c-Myc expression at 1 to 2 uM after 4 days by Q-PCR analysis. The format is functional, cell-based. As to conditions: dose 1-2 µM, time 4.0 day.
Data set [23] has as its system SW1990. Description: Induction of autophagy in human SW1990 cells assessed as increase in ATG5 expression at 1 to 2 uM incubated for 4 days by immunofluorescence assay. The format is functional, cell-based. As to conditions: dose 1-2 µM, time 4.0 day.

Chain of Poly [ADP-ribose] polymerase 2 (Q9UGN5 whole entry): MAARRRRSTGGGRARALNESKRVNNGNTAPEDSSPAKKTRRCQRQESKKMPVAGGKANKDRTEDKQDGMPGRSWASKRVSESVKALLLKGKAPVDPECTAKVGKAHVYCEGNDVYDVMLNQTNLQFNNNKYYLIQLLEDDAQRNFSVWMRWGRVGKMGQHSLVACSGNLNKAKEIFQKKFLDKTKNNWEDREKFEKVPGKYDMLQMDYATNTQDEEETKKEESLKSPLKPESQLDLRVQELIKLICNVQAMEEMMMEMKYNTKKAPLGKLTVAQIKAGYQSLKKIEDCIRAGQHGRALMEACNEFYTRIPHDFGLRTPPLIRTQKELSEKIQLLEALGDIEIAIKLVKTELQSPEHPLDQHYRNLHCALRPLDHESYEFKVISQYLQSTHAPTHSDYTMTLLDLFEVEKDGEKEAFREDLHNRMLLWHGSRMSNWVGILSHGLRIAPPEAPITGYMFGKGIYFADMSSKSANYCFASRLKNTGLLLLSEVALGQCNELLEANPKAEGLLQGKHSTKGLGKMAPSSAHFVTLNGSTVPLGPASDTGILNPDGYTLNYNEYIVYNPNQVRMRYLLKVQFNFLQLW

As to `Cc1sc2c(c1C)C(c1ccc(Cl)cc1)=N[C@@H](CC(=O)OC(C)(C)C)c1nnc(C)n1-2`, the result with SW1990 [1], with SW1990 [2] and with Mus musculus [7] was Active. The Activity result with Mus musculus [3], with Mus musculus [4], in the data set on Mus musculus [5] and in the data set on Mus musculus [6] was “Non-Toxic” throughout. Moreover, the inhibition result in the data set with SW1990 [8] and in the data set on SW1990 [9] was “Active” each time.
Turning to `CC[C@@H]1C(=O)N(C)c2cnc(N(C)c3ccc(-c4nc5c(C(N)=O)cccc5[nH]4)cc3OC)nc2N1C1CCCC1`, the pIC50 (in general, the negative decadic logarithm of the IC50, by convention in mol/L) in [10] is 8.33; in [11], 6.42; in data set [13], 4.44. For the same molecule, the inhibition result (with Mus musculus [12]; in [14]; in the data set on SW1990 [21]; in the data set on SW1990 [22]) was “Active” throughout. In addition, the Activity in the data set with SW1990 [15] amounted to 2.81%; in the data set on SW1990 [16], 77.56%. Besides, the outcome with Mus musculus [17], with SW1990 [18], with Mus musculus [19], with SW1990 [20] and with SW1990 [23] was Active.
